Measured values as given in PubChem BioAssay AID248 (DTP/NCI, 2004).
Values joined by “and” are separate entries in the source; they are usually repeats but may differ in a detail not shown here. Equal values may be shown once. Inconclusive results and toxic doses are left out.

System: L1210 leukemia ip in BDF1 mice, survival T/C
Assay: NCI In Vivo Anticancer Drug Screen. Data for tumor model L1210 Leukemia (intraperitoneal) in B6D2F1 (BDF1) mice
Conditions: endpoint: mean survival time, higher = longer survival
Outline: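 Transplanted-tumor mice were given test agent; controls received vehicle only. Survival readings from the two groups were divided (treated over control).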

[1] = dose: 12.5 mg/kg/injection, schedule: Q01DX009 (ip), vehicle: Klucel (hydroxypropylcellulose) (HPC)
[2] = dose: 12.5 mg/kg/injection, schedule: Q04DX003 (ip), vehicle: Klucel (hydroxypropylcellulose) (HPC)
[3] = dose: 25.0 mg/kg/injection, schedule: Q01DX009 (ip), vehicle: Klucel (hydroxypropylcellulose) (HPC)
[4] = dose: 25.0 mg/kg/injection, schedule: Q04DX003 (ip), vehicle: Klucel (hydroxypropylcellulose) (HPC)
[5] = dose: 50.0 mg/kg/injection, schedule: Q01DX009 (ip), vehicle: Klucel (hydroxypropylcellulose) (HPC)
[6] = dose: 50.0 mg/kg/injection, schedule: Q04DX003 (ip), vehicle: Klucel (hydroxypropylcellulose) (HPC)
[7] = dose: 100.0 mg/kg/injection, schedule: Q04DX003 (ip), vehicle: saline with Tween-80
[8] = dose: 200.0 mg/kg/injection, schedule: Q04DX003 (ip), vehicle: saline with Tween-80
[9] = dose: 400.0 mg/kg/injection, schedule: Q04DX003 (ip), vehicle: saline with Tween-80
[10] = dose: 100.0 mg/kg/injection, schedule: Q01DX001 (ip), vehicle: saline
[11] = dose: 200.0 mg/kg/injection, schedule: Q01DX001 (ip), vehicle: saline
[12] = dose: 400.0 mg/kg/injection, schedule: Q01DX001 (ip), vehicle: saline
[13] = dose: 100.0 mg/kg/injection, schedule: Q04DX002 (ip), vehicle: Klucel (hydroxypropylcellulose) (HPC)
[14] = dose: 100.0 mg/kg/injection, schedule: Q01DX009 (ip), vehicle: Klucel (hydroxypropylcellulose) (HPC)
[15] = dose: 100.0 mg/kg/injection, schedule: Q04DX003 (ip), vehicle: Klucel (hydroxypropylcellulose) (HPC)
[16] = dose: 200.0 mg/kg/injection, schedule: Q01DX009 (ip), vehicle: Klucel (hydroxypropylcellulose) (HPC)
[17] = dose: 200.0 mg/kg/injection, schedule: Q04DX002 (ip), vehicle: Klucel (hydroxypropylcellulose) (HPC)
[18] = dose: 200.0 mg/kg/injection, schedule: Q04DX003 (ip), vehicle: Klucel (hydroxypropylcellulose) (HPC)
[19] = dose: 100.0 mg/kg/injection, schedule: Q01DX009 (ip), vehicle: saline with Tween-80
[20] = dose: 200.0 mg/kg/injection, schedule: Q01DX009 (ip), vehicle: saline with Tween-80
[21] = dose: 100.0 mg/kg/injection, schedule: Q01DX009 (ip), vehicle: saline
[22] = dose: 200.0 mg/kg/injection, schedule: Q01DX009 (ip), vehicle: saline
[23] = dose: 400.0 mg/kg/injection, schedule: Q01DX009 (ip), vehicle: saline
[24] = dose: 400.0 mg/kg/injection, schedule: Q01DX009 (ip), vehicle: saline with Tween-80
[25] = dose: 50.0 mg/kg/injection, schedule: Q04DX002 (ip), vehicle: saline with Tween-80
[26] = dose: 100.0 mg/kg/injection, schedule: Q04DX002 (ip), vehicle: saline with Tween-80

SMILES: CS(=O)(=O)N1C=CC=CC=C1
- T/C [1]: 91 % of control
- T/C [2]: 96 % of control
- T/C [3]: 95 % of control
- T/C [4]: 98 % of control
- T/C [5]: 95 % of control
- T/C [6]: 105 % of control

SMILES: CCCCCCCCCCCCCCCCC(C(=O)OCC)C(=O)c1ccccc1 (stereo unspecified)
- T/C [7]: 95 % of control
- T/C [8]: 95 % of control
- T/C [9]: 91 % of control

SMILES: O=C(Nc1ccc(C(=O)O)cc1)Oc1ccc(N(CCCl)CCCl)cc1
- T/C (dose: 6.0 mg/kg/injection, schedule: Q01DX009 (ip), vehicle: other): 114 % of control
- T/C (dose: 6.0 mg/kg/injection, schedule: Q01DX009 (ip), vehicle: saline): 106 % of control
- T/C (dose: 12.0 mg/kg/injection, schedule: Q01DX009 (ip), vehicle: other): 122 % of control
- T/C (dose: 12.0 mg/kg/injection, schedule: Q01DX009 (ip), vehicle: saline): 117 % of control
- T/C (dose: 37.5 mg/kg/injection, schedule: Q01DX001 (ip), vehicle: other): 114 % of control
- T/C (dose: 48.0 mg/kg/injection, schedule: Q01DX009 (ip), vehicle: other): 160 % of control
- T/C (dose: 75.0 mg/kg/injection, schedule: Q01DX001 (ip), vehicle: carboxymethylcellulose (CMC)): 124 % of control
- T/C (dose: 75.0 mg/kg/injection, schedule: Q01DX001 (ip), vehicle: other): 121 % of control
- T/C (dose: 96.0 mg/kg/injection, schedule: Q01DX009 (ip), vehicle: other): 101 % of control
- T/C (dose: 96.0 mg/kg/injection, schedule: Q01DX009 (ip), vehicle: saline): 91 % of control
- T/C (dose: 300.0 mg/kg/injection, schedule: Q01DX001 (ip), vehicle: other): 117 % of control

SMILES: CCCCCCCCCCCCCCCCCC(=O)OCCOCCOCCOCCOCCOCCOCCOCCOCCO
- T/C [10]: 100 % of control
- T/C [11]: 94 % of control
- T/C [12]: 97 % of control

SMILES: CCCCCCC(CO)CO
- T/C [10]: 89 % of control
- T/C [11]: 91 % of control
- T/C [12]: 94 % of control

SMILES: C/C=C/N1CCN(/C=C/C)C1=O
- T/C (dose: 25.0 mg/kg/injection, schedule: Q04DX002 (ip), vehicle: Klucel (hydroxypropylcellulose) (HPC)): 96 % of control
- T/C (dose: 50.0 mg/kg/injection, schedule: Q04DX002 (ip), vehicle: Klucel (hydroxypropylcellulose) (HPC)): 102 % of control
- T/C [13]: 90 % of control

SMILES: O=C(O)/C(=C\c1ccc([N+](=O)[O-])cc1)c1cccc(Cl)c1
- T/C (dose: 100.0 mg/kg/injection, schedule: Q01DX001 (ip), vehicle: Klucel (hydroxypropylcellulose) (HPC)): 108 % of control
- T/C [14]: 96 % of control and 97 % of control
- T/C [13]: 94 % of control and 89 % of control
- T/C [15]: 106 % of control
- T/C (dose: 200.0 mg/kg/injection, schedule: Q01DX001 (ip), vehicle: Klucel (hydroxypropylcellulose) (HPC)): 103 % of control
- T/C [16]: 97 % of control and 102 % of control
- T/C [17]: 101 % of control and 102 % of control
- T/C [18]: 97 % of control
- T/C (dose: 400.0 mg/kg/injection, schedule: Q01DX001 (ip), vehicle: Klucel (hydroxypropylcellulose) (HPC)): 98 % of control
- T/C (dose: 400.0 mg/kg/injection, schedule: Q04DX002 (ip), vehicle: Klucel (hydroxypropylcellulose) (HPC)): 99 % of control
- T/C (dose: 400.0 mg/kg/injection, schedule: Q04DX003 (ip), vehicle: Klucel (hydroxypropylcellulose) (HPC)): 99 % of control

SMILES: [Cl][Rh][Cl].c1cn[nH]c1.c1cn[nH]c1.c1cn[nH]c1.c1cn[nH]c1
- T/C [1]: 98 % of control
- T/C [2]: 90 % of control
- T/C [3]: 89 % of control
- T/C [4]: 95 % of control
- T/C [6]: 102 % of control

SMILES: COC1(OC)CCC2(C)C(CCCC2OS(=O)(=O)c2ccc(C)cc2)C1 (stereo unspecified)
- T/C (dose: 100.0 mg/kg/injection, schedule: Q01DX001 (ip), vehicle: carboxymethylcellulose (CMC)): 97 % of control
- T/C (dose: 200.0 mg/kg/injection, schedule: Q01DX001 (ip), vehicle: carboxymethylcellulose (CMC)): 108 % of control
- T/C (dose: 400.0 mg/kg/injection, schedule: Q01DX001 (ip), vehicle: carboxymethylcellulose (CMC)): 97 % of control

SMILES: CC(C)NC(=O)c1ccc(/C=N/N(C)C)cc1
- T/C [4]: 104 % of control
- T/C [6]: 106 % of control
- T/C [15]: 95 % of control
- T/C [18]: 101 % of control

SMILES: CCCCCCP(=O)(CCCCCC)CCCCCC (tested in a mixture with another compound)
- T/C [19]: 100 % of control
- T/C [20]: 86 % of control

SMILES: COc1ccc(C(Nc2ccc([N+](=O)[O-])cc2)P(=O)(c2ccccc2)c2ccccc2)cc1 (stereo unspecified)
- T/C [21]: 102 % of control
- T/C [22]: 95 % of control
- T/C [23]: 106 % of control

SMILES: O=P(Oc1ccc(S(=O)(=O)c2ccccc2)cc1)(Oc1ccc(S(=O)(=O)c2ccccc2)cc1)Oc1ccc(S(=O)(=O)c2ccccc2)cc1
- T/C [19]: 90 % of control
- T/C [7]: 90 % of control
- T/C [20]: 93 % of control
- T/C [8]: 91 % of control
- T/C [24]: 91 % of control
- T/C [9]: 95 % of control

SMILES: NCS(=O)(=O)O
- T/C (dose: 25.0 mg/kg/injection, schedule: Q01DX001 (ip), vehicle: saline with Tween-80): 107 % of control
- T/C (dose: 50.0 mg/kg/injection, schedule: Q01DX001 (ip), vehicle: saline with Tween-80): 107 % of control
- T/C [14]: 98 % of control
- T/C [21]: 100 % of control
- T/C [16]: 98 % of control
- T/C [22]: 93 % of control
- T/C (dose: 400.0 mg/kg/injection, schedule: Q01DX009 (ip), vehicle: Klucel (hydroxypropylcellulose) (HPC)): 95 % of control
- T/C [23]: 88 % of control

SMILES: NNC(=O)CNc1ccc(F)cc1
- T/C [13]: 105 % of control
- T/C [17]: 114 % of control

SMILES: O=C(O)CNC(=O)c1ccc([N+](=O)[O-])cc1
- T/C [19]: 92 % of control
- T/C [7]: 103 % of control
- T/C [20]: 92 % of control
- T/C [8]: 98 % of control
- T/C [24]: 92 % of control
- T/C [9]: 98 % of control

SMILES: Cc1cccc(C)c1NC(=O)C[N+](C)(C)N
- T/C (dose: 100.0 mg/kg/injection, schedule: Q04DX002 (ip), vehicle: saline): 94 % of control
- T/C (dose: 200.0 mg/kg/injection, schedule: Q04DX002 (ip), vehicle: saline): 94 % of control

SMILES: CCC(CO)Nc1nncc2ccccc12 (stereo unspecified)
- T/C [10]: 98 % of control
- T/C [11]: 96 % of control
- T/C [12]: 104 % of control

SMILES: CC[N+](C)(CC)CCCNC(=O)C(c1ccccc1)c1ccccc1
- T/C [7]: 100 % of control

SMILES: S=C(S)NCCc1ccccn1
- T/C [7]: 95 % of control
- T/C [8]: 87 % of control
- T/C [9]: 98 % of control

SMILES: NC(=O)NC(=O)C1C2CC3OC(=O)C1C3C2 (stereo unspecified)
- T/C (dose: 100.0 mg/kg/injection, schedule: Q04DX003 (ip), vehicle: saline): 93 % of control
- T/C (dose: 200.0 mg/kg/injection, schedule: Q04DX003 (ip), vehicle: saline): 93 % of control
- T/C (dose: 400.0 mg/kg/injection, schedule: Q04DX003 (ip), vehicle: saline): 98 % of control

SMILES: NNC(=O)OCc1ccccc1
- T/C (dose: 25.0 mg/kg/injection, schedule: Q04DX002 (ip), vehicle: saline with Tween-80): 100 % of control
- T/C [25]: 100 % of control
- T/C [26]: 100 % of control

SMILES: Cc1cccc(C)c1N(COC(C)C)C(=O)CCl
- T/C [19]: 94 % of control
- T/C [20]: 95 % of control

SMILES: COC(=O)C(O)C(O)C(O)C(O)C(=O)OC (stereo unspecified)
- T/C [25]: 101 % of control
- T/C [26]: 96 % of control
- T/C (dose: 200.0 mg/kg/injection, schedule: Q04DX002 (ip), vehicle: saline with Tween-80): 90 % of control
- T/C (dose: 400.0 mg/kg/injection, schedule: Q04DX002 (ip), vehicle: saline with Tween-80): 93 % of control

SMILES: O=C(O)C(Br)CN1C(=O)c2ccccc2C1=O (stereo unspecified)
- T/C (dose: 50.0 mg/kg/injection, schedule: Q01DX009 (ip), vehicle: saline): 91 % of control
- T/C [21]: 95 % of control
- T/C [22]: 91 % of control

SMILES: CCCCNC(=O)Oc1c(Cl)cc(Cl)c(Cl)c1[N+](=O)[O-]
- T/C [1]: 96 % of control
- T/C [3]: 112 % of control
- T/C [5]: 101 % of control
